{"source": "ChEMBL document CHEMBL5726860", "about": "“Phthalazinones and isoquinolinones as rock inhibitors” (2018)", "data": [{"target": "Rho-associated protein kinase 1 (Homo sapiens, UniProt Q13464)", "sequence (Q13464 2-1354 limits assumed, change not shown)": "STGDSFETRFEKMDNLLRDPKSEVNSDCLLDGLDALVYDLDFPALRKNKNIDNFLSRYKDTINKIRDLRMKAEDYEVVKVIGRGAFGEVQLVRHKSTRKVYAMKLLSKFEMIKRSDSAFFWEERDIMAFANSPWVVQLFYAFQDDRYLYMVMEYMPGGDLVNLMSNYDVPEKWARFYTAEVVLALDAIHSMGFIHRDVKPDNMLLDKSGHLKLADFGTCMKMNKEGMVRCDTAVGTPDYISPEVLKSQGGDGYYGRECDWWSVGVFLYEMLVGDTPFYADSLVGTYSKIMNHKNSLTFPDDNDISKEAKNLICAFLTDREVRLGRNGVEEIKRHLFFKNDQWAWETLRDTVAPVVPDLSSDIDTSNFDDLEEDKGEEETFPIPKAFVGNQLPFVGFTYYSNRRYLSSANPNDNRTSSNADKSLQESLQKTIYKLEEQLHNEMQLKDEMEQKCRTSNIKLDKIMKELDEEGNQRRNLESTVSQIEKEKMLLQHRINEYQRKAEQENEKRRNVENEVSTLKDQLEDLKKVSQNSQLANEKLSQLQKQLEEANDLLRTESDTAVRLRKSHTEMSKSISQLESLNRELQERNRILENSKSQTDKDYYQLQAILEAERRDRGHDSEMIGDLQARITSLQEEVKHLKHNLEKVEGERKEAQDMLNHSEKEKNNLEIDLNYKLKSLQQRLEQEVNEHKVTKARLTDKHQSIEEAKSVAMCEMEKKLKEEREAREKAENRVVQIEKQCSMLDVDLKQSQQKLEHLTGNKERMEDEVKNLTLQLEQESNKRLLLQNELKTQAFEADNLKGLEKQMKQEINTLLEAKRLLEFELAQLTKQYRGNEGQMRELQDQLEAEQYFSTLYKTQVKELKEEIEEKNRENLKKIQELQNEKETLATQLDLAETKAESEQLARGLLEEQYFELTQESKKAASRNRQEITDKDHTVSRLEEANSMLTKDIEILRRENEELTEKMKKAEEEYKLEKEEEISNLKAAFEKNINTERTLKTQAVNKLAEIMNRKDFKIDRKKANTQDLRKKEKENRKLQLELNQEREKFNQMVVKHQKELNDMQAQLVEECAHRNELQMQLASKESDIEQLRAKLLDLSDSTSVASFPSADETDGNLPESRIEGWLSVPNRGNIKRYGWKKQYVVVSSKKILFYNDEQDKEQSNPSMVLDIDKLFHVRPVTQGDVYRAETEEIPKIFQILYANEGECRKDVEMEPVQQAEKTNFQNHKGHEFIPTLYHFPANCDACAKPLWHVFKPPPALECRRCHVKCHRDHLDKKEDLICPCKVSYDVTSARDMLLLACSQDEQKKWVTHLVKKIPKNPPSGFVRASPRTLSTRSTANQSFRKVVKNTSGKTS", "experiment": "(§1) In Vitro Assay: The effectiveness of compounds of the present invention as ROCK inhibitors can be determined in a 30 μL assay containing 20 mM HEPES, pH 7.5, 20 mM MgCl2, 0.015% Brij-35, 4 mM DTT, 5 μM ATP and 1.5 μM peptide substrate (FITC-AHA-[…]-OH). Compounds were dissolved in DMSO so that the final concentration of DMSO was <2%, and the reaction was initiated with Rho kinase variants. After incubation, the reaction was terminated by the addition of EDTA and the phosphorylated and non-phosphorylated peptides separated using a LABCHIP® 3000 Reader (Caliper Life Sciences). […] Compounds were tested in dose-response format, and the inhibition of kinase activity was calculated at each concentration of compound. The inhibition data were fit using a curve-fitting program to determine the IC50; i.e., the concentration of compound required to inhibit 50% of kinase activity.", "values": [{"molecule": "O=C(Oc1ccc(-c2n[nH]c(=O)c3ccccc23)cc1)N1Cc2ccccc2C1", "IC50": "in the range around 550 nM"}]}, {"target": "Rho-associated protein kinase 2 (Homo sapiens, UniProt O75116)", "sequence (O75116 whole entry, looked up, change not shown)": "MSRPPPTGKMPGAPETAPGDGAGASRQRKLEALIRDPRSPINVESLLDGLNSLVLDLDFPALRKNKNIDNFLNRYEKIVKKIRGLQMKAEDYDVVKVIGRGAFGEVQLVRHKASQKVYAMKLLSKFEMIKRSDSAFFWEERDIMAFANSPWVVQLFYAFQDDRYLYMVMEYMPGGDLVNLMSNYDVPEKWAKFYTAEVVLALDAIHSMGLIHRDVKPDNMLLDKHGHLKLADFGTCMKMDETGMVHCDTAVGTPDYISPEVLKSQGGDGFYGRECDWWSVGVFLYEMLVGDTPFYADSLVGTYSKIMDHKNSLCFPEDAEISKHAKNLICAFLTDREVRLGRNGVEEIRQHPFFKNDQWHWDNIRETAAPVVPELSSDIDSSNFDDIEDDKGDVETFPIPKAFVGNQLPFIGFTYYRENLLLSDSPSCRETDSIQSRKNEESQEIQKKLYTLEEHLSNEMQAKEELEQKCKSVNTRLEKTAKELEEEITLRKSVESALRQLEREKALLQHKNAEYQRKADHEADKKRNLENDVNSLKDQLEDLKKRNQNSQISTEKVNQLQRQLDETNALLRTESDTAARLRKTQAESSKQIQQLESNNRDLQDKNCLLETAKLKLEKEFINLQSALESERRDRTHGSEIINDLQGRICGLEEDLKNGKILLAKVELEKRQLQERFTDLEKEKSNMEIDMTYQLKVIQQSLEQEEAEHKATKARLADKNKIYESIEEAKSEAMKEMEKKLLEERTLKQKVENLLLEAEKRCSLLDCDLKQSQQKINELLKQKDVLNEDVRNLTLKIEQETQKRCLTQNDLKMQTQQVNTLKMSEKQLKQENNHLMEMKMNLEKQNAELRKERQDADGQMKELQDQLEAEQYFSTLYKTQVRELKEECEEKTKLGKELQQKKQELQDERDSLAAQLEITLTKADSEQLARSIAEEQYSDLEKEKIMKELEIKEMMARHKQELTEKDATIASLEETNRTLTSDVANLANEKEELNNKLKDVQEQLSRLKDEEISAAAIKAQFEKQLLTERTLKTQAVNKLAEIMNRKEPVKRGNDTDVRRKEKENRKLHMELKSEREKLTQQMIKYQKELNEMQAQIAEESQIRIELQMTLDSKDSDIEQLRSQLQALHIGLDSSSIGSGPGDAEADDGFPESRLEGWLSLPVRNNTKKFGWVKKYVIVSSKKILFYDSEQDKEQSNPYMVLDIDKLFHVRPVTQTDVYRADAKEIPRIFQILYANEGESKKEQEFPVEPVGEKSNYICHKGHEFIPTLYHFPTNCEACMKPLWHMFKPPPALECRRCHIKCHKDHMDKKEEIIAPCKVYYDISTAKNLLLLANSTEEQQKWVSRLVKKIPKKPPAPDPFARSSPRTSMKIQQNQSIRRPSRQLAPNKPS", "experiment": "as §1", "units": {"IC50": "nM"}, "values": [{"molecule": "CC(O)Cn1cc(C(=O)Nc2ccc(-c3n[nH]c(=O)c4ccccc34)cc2)cn1", "note": "(stereo not drawn)", "IC50": "< 100"}, {"molecule": "O=C(Nc1ccc(-c2n[nH]c(=O)c3ccccc23)cc1)c1cn2ccnc(Cl)c2n1", "IC50": "< 100"}, {"molecule": "O=C(Nc1ccc(-c2n[nH]c(=O)c3ccccc23)c(Cl)c1)c1nn(CC2CNC2)c2ccccc12", "IC50": "< 100"}, {"molecule": "O=C(Nc1ccc(-c2n[nH]c(=O)c3ccccc23)cc1)c1cnn(CC(O)C(F)(F)F)c1", "note": "(stereo not drawn)", "IC50": "< 100"}, {"molecule": "O=C(Nc1ccc(-c2n[nH]c(=O)c3ccccc23)cc1)c1cnn(CC(F)(F)C(F)F)c1", "IC50": "< 100"}, {"molecule": "CCc1c(C(=O)Nc2ccc(-c3n[nH]c(=O)c4ccccc34)cc2)nnn1-c1cccc(Cl)c1", "IC50": "< 100"}, {"molecule": "O=C(Nc1ccc(-c2n[nH]c(=O)c3ccccc23)cc1)c1cc2ncccn2n1", "IC50": "< 100"}, {"molecule": "O=C(Nc1ccc(-c2n[nH]c(=O)c3ccccc23)cc1)c1cnn(C2CCS(=O)(=O)C2)c1", "note": "(stereo not drawn)", "IC50": "< 100"}, {"molecule": "O=C(Nc1ccc(-c2n[nH]c(=O)c3ccccc23)cc1)c1c[nH]c2ncc(F)cc12", "IC50": "< 100"}, {"molecule": "O=C(Nc1ccc(-c2n[nH]c(=O)c3ccccc23)c(CO)c1)c1nn(CCC2CCOCC2)c2ccccc12", "IC50": "< 100"}, {"molecule": "O=C(Nc1ccc(-c2n[nH]c(=O)c3ccccc23)cc1)c1cnn(CC2CC2)c1", "IC50": "< 100"}, {"molecule": "O=C(Cc1ccc(-c2c[nH]c(=O)c3ccccc23)c(F)c1)N1Cc2ccccc2C1", "IC50": "< 100"}, {"molecule": "O=C(Nc1ccc(-c2n[nH]c(=O)c3ccccc23)cc1)c1nn(CC2CCNCC2)c2ccccc12", "IC50": "< 100"}, {"molecule": "Cc1ccc2oc(Nc3ccc(-c4n[nH]c(=O)c5ccccc45)cc3)nc2c1", "IC50": "< 100"}, {"molecule": "O=C(Nc1ccc(-c2n[nH]c(=O)c3ccccc23)cc1)c1cn[nH]c1", "IC50": "< 100"}, {"molecule": "O=C(Nc1ccc(-c2n[nH]c(=O)c3ccccc23)cc1)c1cnn2ccc(OCCO)cc12", "IC50": "< 100"}, {"molecule": "CCCn1cc(C(=O)Nc2ccc(-c3n[nH]c(=O)c4ccccc34)cc2)cn1", "IC50": "< 100"}, {"molecule": "O=c1[nH]nc(-c2ccc(Nc3nnc(-c4ccccc4)s3)cc2)c2ccccc12", "IC50": "< 100"}, {"molecule": "O=C(Nc1ccc(-c2n[nH]c(=O)c3ccccc23)cc1)c1cnn(C2CCCC2)c1", "IC50": "< 100"}, {"molecule": "O=C(Nc1ccc(-c2n[nH]c(=O)c3ccccc23)cc1)c1cnn(C2CCCCC2)c1", "IC50": "< 100"}, {"molecule": "O=C(Nc1ccc(-c2n[nH]c(=O)c3ccccc23)cc1)c1cnn(CC(F)(F)F)c1", "IC50": "< 100"}, {"molecule": "O=C(Nc1ccc(-c2c[nH]c(=O)c3ccccc23)cc1)c1ccc(N2CCOCC2)cc1", "IC50": "< 100"}]}]}
